Experimental findings from PubChem BioAssay (NCI) are described below.

Some test systems named below: NCI-H23 lung; MOLT-4 leukemia; M14 melanoma; OVCAR-3 ovarian; NCI/ADR-RES ovarian; HCC-2998 colon; SR leukemia; HCT-15 colon; CAKI-1 renal; A498 renal.
Holding throughout (assay): growth of human tumour cells (NCI), 48 h

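The compound was tested at five concentrations on cells cultured in 96-well plates, with a 48-hour exposure period. At the TGI there is no net growth.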

Turning to `O=C1CSC2=NC3=C(CSC/C3=C\c3ccccc3)C(c3ccccc3)N12` (stereo not given), the TGI in the assay on NCI-H23 lung, in the assay with MOLT-4 leukemia, in the assay on M14 melanoma, in the assay with OVCAR-3 ovarian, in the assay with NCI/ADR-RES ovarian and in the assay with HCC-2998 colon was more than 100 µM each time. Also, the TGI in the assay on SR leukemia and with HCT-15 colon was more than 100 µM in each case.

Take `COc1c2c(cc3c1C1(O)Cc4ccc5c(c4C[N+]1(C)CC3)OCO5)OCO2` (stereo not given): the TGI in the assay with NCI-H23 lung, in the assay on MOLT-4 leukemia, in the assay on M14 melanoma, in the assay on OVCAR-3 ovarian, in the assay with NCI/ADR-RES ovarian and in the assay on HCC-2998 colon was more than 100 µM in each case. Also, the TGI with CAKI-1 renal, with SR leukemia, in the assay with A498 renal and in the assay with HCT-15 colon was more than 100 µM throughout.

For the molecule `COP(=O)(OC)/C(=C/c1cn(C(c2ccccc2)(c2ccccc2)c2ccccc2)cn1)NC=O`, the TGI in the assay with NCI-H23 lung is 41.2 µM; in the assay with MOLT-4 leukemia it was more than 100 µM; in the assay on M14 melanoma, 34.4 µM; in the assay on OVCAR-3 ovarian, 30.2 µM; in the assay with NCI/ADR-RES ovarian, more than 100 µM; in the assay on HCC-2998 colon it was 33.3 µM. Also, the TGI with CAKI-1 renal is 62.3 µM; with SR leukemia it was more than 100 µM; in the assay on A498 renal, 32 µM; in the assay on HCT-15 colon it was 99.4 µM.

`CC(C)(C)OC(=O)Cn1ncn(NC(=O)Cc2ccccc2)c1=O`: the TGI in the assay on NCI-H23 lung, with MOLT-4 leukemia, with M14 melanoma, in the assay with OVCAR-3 ovarian, in the assay with NCI/ADR-RES ovarian and with HCC-2998 colon was more than 10 µM in each case. The TGI in the assay with CAKI-1 renal, in the assay with SR leukemia, in the assay on A498 renal and in the assay with HCT-15 colon was more than 10 µM each time.

Turning to `O=S(=O)(/N=C(\NO)Nc1ccc(Cl)cc1)c1ccccc1`, the TGI in the assay on NCI-H23 lung was more than 100 µM; in the assay with MOLT-4 leukemia it was more than 56.6 µM; in the assay on M14 melanoma, 48.6 µM; in the assay on OVCAR-3 ovarian, 8.89 µM; in the assay with NCI/ADR-RES ovarian, 60.3 µM; in the assay with HCC-2998 colon, 22 µM. Also, the TGI in the assay on CAKI-1 renal was 23 µM; in the assay on SR leukemia, 9.91 µM; in the assay with A498 renal, 27.3 µM; with HCT-15 colon, more than 100 µM.

In the case of `C=CCc1cc(C(Cc2ccccc2)NC(C)C)cc(OCc2ccccc2)c1OCc1ccccc1` (stereo not given), the TGI with NCI-H23 lung amounted to 33.8 µM; in the assay on MOLT-4 leukemia, 26.7 µM; with M14 melanoma it was 28.8 µM; in the assay with OVCAR-3 ovarian, 30.4 µM; in the assay with NCI/ADR-RES ovarian, 30.7 µM; with HCC-2998 colon it was 26.7 µM. Moreover, the TGI stood at 29.5 µM with CAKI-1 renal, 28.5 µM in the assay on SR leukemia, 29.2 µM in the assay on A498 renal and 30.7 µM with HCT-15 colon.

For `CCCC1(CCC)c2cc(/C=N\O)ccc2-c2ccc(-c3ccc(C(C)(C)C)cc3)cc21`, the TGI is more than 100 µM in the assay with NCI-H23 lung; 60.9 µM in the assay on MOLT-4 leukemia; more than 100 µM in the assay on M14 melanoma; 55 µM in the assay with OVCAR-3 ovarian; more than 100 µM in the assay with NCI/ADR-RES ovarian; more than 100 µM in the assay on HCC-2998 colon. The TGI with CAKI-1 renal is more than 100 µM; in the assay with SR leukemia, 73.1 µM; in the assay on HCT-15 colon, more than 100 µM.

In the case of `C[N+]1(CCC[N+]2(C)CC3C4C=CC(CC4)C3C2)CCOCC1` (stereo not given), the TGI with NCI-H23 lung, in the assay with MOLT-4 leukemia, in the assay with M14 melanoma, in the assay on OVCAR-3 ovarian, in the assay on NCI/ADR-RES ovarian and in the assay with HCC-2998 colon was more than 100 µM each time. In addition, the TGI with CAKI-1 renal, in the assay with SR leukemia, in the assay with A498 renal and with HCT-15 colon was more than 100 µM throughout.

Take `Nc1c2c(nc3ccccc13)-c1ccccc1NCCC2`: the TGI was more than 100 µM with NCI-H23 lung; more than 100 µM in the assay on MOLT-4 leukemia; 33.3 µM in the assay with M14 melanoma; more than 100 µM in the assay with OVCAR-3 ovarian; more than 100 µM with NCI/ADR-RES ovarian; 27 µM in the assay with HCC-2998 colon. The TGI was more than 100 µM with CAKI-1 renal, more than 100 µM with SR leukemia, 55.5 µM with A498 renal and more than 100 µM in the assay with HCT-15 colon.

With `CCOC(=O)C(O)(C(=O)OCC)c1cc(C(C)(C)C)c(O)c(C(C)(C)C)c1`, the TGI with NCI-H23 lung, with MOLT-4 leukemia, in the assay on M14 melanoma, with OVCAR-3 ovarian, in the assay with NCI/ADR-RES ovarian and in the assay on CAKI-1 renal was more than 100 µM each time. The TGI in the assay on SR leukemia, with A498 renal and with HCT-15 colon was more than 100 µM in each case.

Take `O=[N+]([O-])/C(C(Cl)=C(Cl)Cl)=C(\N1CCCCC1)n1nnc2ccccc21`: the TGI in the assay on NCI-H23 lung is 38.8 µM; in the assay with MOLT-4 leukemia it was 18.3 µM; in the assay on M14 melanoma it was 32.5 µM; in the assay on OVCAR-3 ovarian, 32.6 µM; in the assay on NCI/ADR-RES ovarian, more than 81.1 µM; with HCC-2998 colon it was 26.2 µM. Also, the TGI was more than 55.9 µM with CAKI-1 renal, 58.4 µM in the assay with SR leukemia, 39.1 µM in the assay with A498 renal and 39.1 µM with HCT-15 colon.

As to `CC1C2=C(CCCC2=O)N(c2ccc(Cl)cc2)C2=C1C(=O)CCC2`, the TGI in the assay with NCI-H23 lung, with MOLT-4 leukemia, with M14 melanoma, with OVCAR-3 ovarian, in the assay on NCI/ADR-RES ovarian and in the assay on HCC-2998 colon was more than 100 µM throughout. Moreover, the TGI in the assay with CAKI-1 renal, with SR leukemia, in the assay with A498 renal and with HCT-15 colon was more than 100 µM throughout.

On to `CCC(O)c1ccc(N=Cc2ccccc2O)cc1` (stereo not given), for which the TGI in the assay with NCI-H23 lung, in the assay on MOLT-4 leukemia, with M14 melanoma, in the assay on OVCAR-3 ovarian, with NCI/ADR-RES ovarian and in the assay with HCC-2998 colon was more than 100 µM each time. Besides, the TGI in the assay with CAKI-1 renal, in the assay with SR leukemia, in the assay with A498 renal and in the assay on HCT-15 colon was more than 100 µM throughout.

`CC[C@H](C)C1=C(O)[N@+]2([O-])Oc3ccc(-c4c(O)c(O)c(-c5ccc(O)cc5)c(OC(C)=O)c4OC(C)=O)cc3O[C@]2([C@@H](C)CC)C(=O)N1O`: the TGI with NCI-H23 lung, in the assay on MOLT-4 leukemia, in the assay on M14 melanoma, with OVCAR-3 ovarian, with NCI/ADR-RES ovarian and with CAKI-1 renal was more than 50 µM throughout. For the same molecule, the TGI in the assay on SR leukemia, in the assay on A498 renal and in the assay with HCT-15 colon was more than 50 µM in each case.
